Measured values published in patent US11147785B2, “Modified free amino acid formulation and uses” (priority 2020, dated 2021).

How the values were obtained:
[1] = test system: hepatic and intestinal glucuronidation; conditions: concomitant administration; more in humans than rats; cited from earlier work
[2] = Topical application without propylene glycol; assay type: in vivo

Compound | Increase of bioavailability (serum concentration and extent of intestinal absorption) [1] | Efficacy in topical applications [2]
O=C(/C=C/C=C/c1ccc2c(c1)OCO2)N1CCCCC1 [Piperine] | up to 20 fold | 
N[C@@H](CCC(=O)O)C(=O)[O-].O.[Na+] [MSGLM, Monosodium L-Glutamate Monohydrate] |  | ineffective
